Results on seven compounds are retold here after ChEMBL document CHEMBL1124865, “Synthesis and biological evaluation of a series of parenteral 3'-quaternary ammonium cephalosporins” (J Med Chem, 1990).

Format in all cases: functional
In assay [1] the test system is Escherichia coli. The assay is described as follows: Antibacterial activity against Escherichia coli TEM.
In assay [2] the test system is Klebsiella pneumoniae. The assay is described as follows: Antibacterial activity against Klebsiella pneumoniae X26.
In assay [3] the test system is Staphylococcus aureus. The assay is described as follows: In vivo efficacy against Staphylococcus aureus infected mice treated at 1 hr and 5 hr post infection.
In assay [4] the test system is Enterobacter cloacae. The assay is described as follows: Antibacterial activity against Enterobacter cloacae 265A. Particulars: Enterobacter cloacae; read-out: MIC.
The test system of assay [5] is Escherichia coli. The assay is described as follows: Antibacterial activity against Escherichia coli EC14. The following applies: Escherichia coli; read-out: MIC.
For assay [6], the system named is Enterobacter cloacae. The assay is described as follows: Antibacterial activity against Enterobacter cloacae EB5. The following applies: Enterobacter cloacae; read-out: MIC.
For assay [7], the system named is Klebsiella pneumoniae. The assay is described as follows: microbe, parasite or virus in culture. The following applies: Klebsiella pneumoniae; read-out: MIC.
Description: Antibacterial activity against Klebsiella pneumoniae 1082E
Assay [8] relates to Pseudomonas aeruginosa. The assay is described as follows: Antibacterial activity against Pseudomonas aeruginosa X528. Particulars: Pseudomonas aeruginosa; read-out: MIC.
Assay [9] deals with Pseudomonas aeruginosa. The assay is described as follows: Antibacterial activity against Pseudomonas aeruginosa PS18. The following applies: Pseudomonas aeruginosa; read-out: MIC.
In assay [10] the test system is Staphylococcus aureus. The assay is described as follows: Antibacterial activity against penicillin G resistance Staphylococcus aureus. The following applies: Staphylococcus aureus; read-out: MIC.
The test system of assay [11] is Staphylococcus aureus. The assay is described as follows: Antibacterial activity against penicillin G susceptible Staphylococcus aureus. The following applies: Staphylococcus aureus; read-out: MIC.
For assay [12], the system named is Streptococcus pneumoniae. The assay is described as follows: Antibacterial activity against Streptococcus pneumoniae. Particulars: Streptococcus pneumoniae; read-out: MIC.
In assay [13] the test system is Serratia marcescens. The assay is described as follows: Antibacterial activity against Serratia marcescens SE3. Particulars: Serratia marcescens; read-out: MIC.
Assay [14] has as its system Streptococcus pyogenes. The assay is described as follows: Antibacterial activity against Streptococcus pyogenes. Particulars: Streptococcus pyogenes; read-out: MIC.
Assay [15] has as its system Enterococcus faecium. The assay is described as follows: Antibacterial activity against Enterococcus faecium. Particulars: Enterococcus faecium; read-out: MIC.
Where [16] appears, read: Escherichia coli, read-out: MIC.
Where [17] appears, read: Klebsiella pneumoniae, read-out: MIC.

SMILES strings stand for the structures. In brackets after ≈: the same amount, converted by molar mass.

As a reminder, the ED50 is the dose that gives a 50% effect, or the effect in half of the subjects. A low value points to greater potency. Regarding `CO/N=C(\C(=O)N[C@@H]1C(=O)N2C(C(=O)[O-])=C(C[n+]3ccc(CC(=O)NO)cc3)CS[C@H]12)c1csc(N)n1` (stereo in doubt; 10), the values for the MIC in assay [1] and in [2] were 0.25 µg/mL (≈ 0.457 µM) and 0.03 µg/mL (≈ 0.0548 µM), respectively. Further, the ED50 in [3] was determined as 7.2 mg/kg.

For the compound `CO/N=C(\C(=O)N[C@@H]1C(=O)N2C(C(=O)[O-])=C(C[n+]3ccsc3)CS[C@H]12)c1csc(N)n1`, the MIC in [4] amounted to 32 µg/mL (≈ 66.6 µM); in assay [5], 0.125 µg/mL (≈ 0.26 µM); in assay [6] it was 0.5 µg/mL (≈ 1.04 µM); in assay [1] (setting [16]), 0.125 µg/mL (≈ 0.26 µM); in [7], 8 µg/mL (≈ 16.6 µM); in assay [2] (setting [17]), 0.125 µg/mL (≈ 0.26 µM). The MIC was found to be 32 µg/mL (≈ 66.6 µM) in assay [8]; 16 µg/mL (≈ 33.3 µM) in assay [9]; 8 µg/mL (≈ 16.6 µM) in assay [10]; 4 µg/mL (≈ 8.32 µM) in assay [11]; 0.125 µg/mL (≈ 0.26 µM) in assay [12]; 0.25 µg/mL (≈ 0.52 µM) in assay [13]. The results for the MIC in assay [14] and in assay [15] were 0.125 µg/mL (≈ 0.26 µM) and 64 µg/mL (≈ 133 µM), respectively.

Take `CO/N=C(\C(=O)N[C@@H]1C(=O)N2C(C(=O)[O-])=C(C[n+]3cccc4c(O)cccc43)CS[C@H]12)c1csc(N)n1`: the MIC in [4] stood at 32 µg/mL (≈ 59.2 µM); in [5] it was 0.03 µg/mL (≈ 0.0555 µM); in assay [6], 0.5 µg/mL (≈ 0.925 µM); in assay [1] (setting [16]) it was 0.06 µg/mL (≈ 0.111 µM); in [7], 8 µg/mL (≈ 14.8 µM); in assay [2] (setting [17]) it was 0.03 µg/mL (≈ 0.0555 µM). Besides, the MIC is 8 µg/mL (≈ 14.8 µM) in assay [8]; 8 µg/mL (≈ 14.8 µM) in [9]; 2 µg/mL (≈ 3.7 µM) in assay [10]; 2 µg/mL (≈ 3.7 µM) in [11]; 0.03 µg/mL (≈ 0.0555 µM) in [12]; 0.5 µg/mL (≈ 0.925 µM) in [13]. The MIC in assay [14] came out at 0.015 µg/mL (≈ 0.0277 µM); in assay [15], 128 µg/mL (≈ 237 µM).

`CCC(C)Nc1nc2cc[n+](CC3=C(C(=O)[O-])N4C(=O)[C@@H](NC(=O)/C(=N\OC)c5csc(N)n5)[C@H]4SC3)cc2s1` (some centres not stated): the MIC came out at 2 µg/mL (≈ 3.32 µM) in assay [4]; 0.06 µg/mL (≈ 0.0995 µM) in assay [5]; 0.25 µg/mL (≈ 0.415 µM) in [6]; 0.015 µg/mL (≈ 0.0249 µM) in assay [1] (setting [16]); 2 µg/mL (≈ 3.32 µM) in [7]; 0.008 µg/mL (≈ 0.0133 µM) in [2] (setting [17]). Also, the MIC in [8] turned out to be 16 µg/mL (≈ 26.5 µM); in assay [9] it was 128 µg/mL (≈ 212 µM); in assay [10], 0.5 µg/mL (≈ 0.83 µM); in assay [11] it was 0.5 µg/mL (≈ 0.83 µM); in assay [12], 0.008 µg/mL (≈ 0.0133 µM); in [13], 0.5 µg/mL (≈ 0.83 µM). Besides, the MIC in assay [14] was 0.008 µg/mL (≈ 0.0133 µM); in assay [15], 128 µg/mL (≈ 212 µM).

For the compound `CO/N=C(\C(=O)N[C@@H]1C(=O)N2C(C(=O)[O-])=C(C[n+]3csc(CCOC=O)c3C)CS[C@H]12)c1csc(N)n1`, the MIC was 2 µg/mL (≈ 3.53 µM) in assay [4]; 0.03 µg/mL (≈ 0.0529 µM) in [5]; 0.06 µg/mL (≈ 0.106 µM) in [6]; 0.03 µg/mL (≈ 0.0529 µM) in [1] (setting [16]); 4 µg/mL (≈ 7.06 µM) in assay [7]; 0.015 µg/mL (≈ 0.0265 µM) in [2] (setting [17]). Further, the MIC in [8] came out at 8 µg/mL (≈ 14.1 µM); in assay [9] it was 16 µg/mL (≈ 28.2 µM); in [10], 2 µg/mL (≈ 3.53 µM); in assay [11], 1 µg/mL (≈ 1.76 µM); in assay [12] it was 0.015 µg/mL (≈ 0.0265 µM); in assay [13], 0.06 µg/mL (≈ 0.106 µM). Moreover, the results for the MIC in assay [14] and in [15] were 0.015 µg/mL (≈ 0.0265 µM) and 16 µg/mL (≈ 28.2 µM), respectively.

For the compound `CO/N=C(\C(=O)N[C@@H]1C(=O)N2C(C(=O)[O-])=C(C[n+]3csc(CCOC(C)=O)c3C)CS[C@H]12)c1csc(N)n1`, the MIC came to 2 µg/mL (≈ 3.44 µM) in [4]; 0.03 µg/mL (≈ 0.0517 µM) in assay [5]; 0.125 µg/mL (≈ 0.215 µM) in [6]; 0.03 µg/mL (≈ 0.0517 µM) in [1] (setting [16]); 8 µg/mL (≈ 13.8 µM) in [7]; 0.015 µg/mL (≈ 0.0258 µM) in assay [2] (setting [17]). For the same compound, the MIC was found to be 32 µg/mL (≈ 55.1 µM) in assay [8]; 64 µg/mL (≈ 110 µM) in [9]; 4 µg/mL (≈ 6.89 µM) in [10]; 2 µg/mL (≈ 3.44 µM) in [11]; 0.015 µg/mL (≈ 0.0258 µM) in [12]; 0.125 µg/mL (≈ 0.215 µM) in assay [13]. The MIC was found to be 0.015 µg/mL (≈ 0.0258 µM) in assay [14] and 32 µg/mL (≈ 55.1 µM) in assay [15].

`CO/N=C(\C(=O)N[C@@H]1C(=O)N2C(C(=O)[O-])=C(C[n+]3cccc4c3CCCC4)CS[C@H]12)c1csc(N)n1` [CEFQUINOME]: the MIC in assay [4] was found to be 2 µg/mL (≈ 3.78 µM); in assay [5], 0.03 µg/mL (≈ 0.0568 µM); in assay [6], 0.125 µg/mL (≈ 0.236 µM); in [1] (setting [16]), 0.03 µg/mL (≈ 0.0568 µM); in assay [7] it was 4 µg/mL (≈ 7.57 µM); in [2] (setting [17]), 0.03 µg/mL (≈ 0.0568 µM). The MIC in [8] worked out at 4 µg/mL (≈ 7.57 µM); in assay [9] it was 16 µg/mL (≈ 30.3 µM); in assay [10] it was 2 µg/mL (≈ 3.78 µM); in assay [11] it was 1 µg/mL (≈ 1.89 µM); in [12], 0.015 µg/mL (≈ 0.0284 µM); in assay [13], 0.125 µg/mL (≈ 0.236 µM). In addition, the MIC in [14] is less than 0.008 µg/mL; in [15], 128 µg/mL (≈ 242 µM).
